Literature values in patent US20210060038A1, “COMPOSITIONS FOR ELIMINATING BACTERIAL PROMOTORS OF COLORECTAL CANCER BY INTRALUMINAL APPLICATION” (priority 2018, published 2021).
Where two headings read alike, the source gives them in different places.

Columns and labels:
human macrophages = conditions: extracellular concentrations 0.125 to 1 μg/mL
[1] = tested on: anaerobic Bacteroides fragilis group of bacteria
[2] = tested on: human polymorphonuclear leukocytes; conditions: rapid passive diffusion
[3] = tested on: anaerobic genus Fusobacterium
[4] = in vivo
[5] = not given; remark: listed apart in the source
IPEC-J2 cells = IPEC-J2 cells exposed at 580 μg/mL, within 15 minutes
[6] = sealed sachets at room temperature
[7] = tested on: Staphylococcus, Streptococcus, Enterococcus, Neisseria, Escherichia, Proteus (indole-negative), Serratia, Salmonella, Shigella, Pseudomonas, Haemophilus, and …
[8] = tested on: indole-positive Proteus spp., Klebsiella and Enterobacter spp.
[9] = tested on: anaerobic genera Peptostreptococcus (including Peptoniphilus, Finegoldia and Anaerococcus)
[10] = tested on: resistant bacterial strains; conditions: overall, controlled clinical trials, oral or intravenous
[11] = tested on: polymorphonuclear leukocytes
[12] = tested on: strains of organisms from the susceptible genera
[13] = not given; remark: listed apart in the source
Pseudomonas aeruginosa = conditions: maximum
[14] = tested on: mouse macrophage cell line

C[C@@H](O)[C@H]1C(=O)N2C(C(=O)O)=C(S[C@@H]3CN[C@H](C(=O)N(C)C)C3)[C@H](C)[C@H]12 [meropenem]
cellular to extracellular concentration ratio (human macrophages): 3-12

Cc1ncc([N+](=O)[O-])n1CCO [metronidazole]
activity against Bacteroides fragilis group [1]: active
time for intracellular levels to approach equilibrium with extracellular levels [2]: ≤ 15 min
activity against Fusobacterium [3]: active

C[C@@H]1O[C@@H]1P(=O)(O)O [Fosfomycin disodium]
bioavailability [4]: high bioavailability
solubility in water: highly soluble in water
pH of 5% solution [5]: 9.0-10.5

C[C@@H]1O[C@@H]1P(=O)(O)O [Fosfomycin calcium monohydrate]
solubility in water (calcium monohydrate): sparingly soluble in water
pH of 0.4% solution ([5]; 0.4% solution): 8.1-9.6
intracellular concentration (IPEC-J2 cells): ~30 µg/mL

C[C@@H]1O[C@@H]1P(=O)(O)O.NC(CO)(CO)CO [Fosfomycin trometamol]
solubility in water: highly soluble in water
pH of 5% solution [5]: 3.5-5.5
stability of granulate [6]: long-term stability

C[C@@H]1O[C@@H]1P(=O)(O)O [fosfomycin, [(2R,3S)-3-methyloxiran-2-yl]phosphonic acid]
activity against Bacteroides fragilis group [1]: inactive
activity against aerobic genera [7]: active
activity against indole-positive Proteus spp., Klebsiella and Enterobacter spp. [8]: less active
activity against Peptostreptococcus [9]: active
appearance of resistant bacterial strains [10]: 3.0%
concentration in polymorphonuclear leukocytes relative to extracellular fluid [11]: up to twice those of the extracellular fluid
synergistic effect, share of tested strains ([12]; early studies, various antibiotic combinations): 70-100%
synergy rates ([12]; subsequent more extensive studies): 36-74%
eosinophilia ([13]; in vivo): 0.2%
transient rashes (allergy) ([13]; in vivo): 0.3 % of cases
transiently raised liver enzymes ([13]; systemically administered): 0.3 % of cases
appearance of resistant bacterial strains (Pseudomonas aeruginosa): 15%
activity against Fusobacterium [3]: active

C[C@@H](O)[C@H]1C(=O)N2C(C(=O)O)=C(S[C@@H]3CN[C@H](C(=O)Nc4cccc(C(=O)O)c4)C3)[C@H](C)[C@H]12 [ertapenem]
extracellular concentration giving bactericidal intracellular concentrations [14]: ≥ 15 µg/mL
